Source: patent US10890577B2, “Treatment methods having reduced drug-related toxicity and methods of identifying the likelihood of patient harm from prescribed medications” (TABULA RASA HEALTHCARE, INC., priority 2016, dated 2021)
Values belong to the molecule of their own block, whether it stands above or below them.

Tests used:
[1] = molecular target: L-type Ca^2+ currents (Homo sapiens, UniProt Q13936); details: cited from earlier work
[2] = molecular target: IKr (Homo sapiens, UniProt Q12809); details: cited from earlier work
IKr, sequence (Q12809 whole entry): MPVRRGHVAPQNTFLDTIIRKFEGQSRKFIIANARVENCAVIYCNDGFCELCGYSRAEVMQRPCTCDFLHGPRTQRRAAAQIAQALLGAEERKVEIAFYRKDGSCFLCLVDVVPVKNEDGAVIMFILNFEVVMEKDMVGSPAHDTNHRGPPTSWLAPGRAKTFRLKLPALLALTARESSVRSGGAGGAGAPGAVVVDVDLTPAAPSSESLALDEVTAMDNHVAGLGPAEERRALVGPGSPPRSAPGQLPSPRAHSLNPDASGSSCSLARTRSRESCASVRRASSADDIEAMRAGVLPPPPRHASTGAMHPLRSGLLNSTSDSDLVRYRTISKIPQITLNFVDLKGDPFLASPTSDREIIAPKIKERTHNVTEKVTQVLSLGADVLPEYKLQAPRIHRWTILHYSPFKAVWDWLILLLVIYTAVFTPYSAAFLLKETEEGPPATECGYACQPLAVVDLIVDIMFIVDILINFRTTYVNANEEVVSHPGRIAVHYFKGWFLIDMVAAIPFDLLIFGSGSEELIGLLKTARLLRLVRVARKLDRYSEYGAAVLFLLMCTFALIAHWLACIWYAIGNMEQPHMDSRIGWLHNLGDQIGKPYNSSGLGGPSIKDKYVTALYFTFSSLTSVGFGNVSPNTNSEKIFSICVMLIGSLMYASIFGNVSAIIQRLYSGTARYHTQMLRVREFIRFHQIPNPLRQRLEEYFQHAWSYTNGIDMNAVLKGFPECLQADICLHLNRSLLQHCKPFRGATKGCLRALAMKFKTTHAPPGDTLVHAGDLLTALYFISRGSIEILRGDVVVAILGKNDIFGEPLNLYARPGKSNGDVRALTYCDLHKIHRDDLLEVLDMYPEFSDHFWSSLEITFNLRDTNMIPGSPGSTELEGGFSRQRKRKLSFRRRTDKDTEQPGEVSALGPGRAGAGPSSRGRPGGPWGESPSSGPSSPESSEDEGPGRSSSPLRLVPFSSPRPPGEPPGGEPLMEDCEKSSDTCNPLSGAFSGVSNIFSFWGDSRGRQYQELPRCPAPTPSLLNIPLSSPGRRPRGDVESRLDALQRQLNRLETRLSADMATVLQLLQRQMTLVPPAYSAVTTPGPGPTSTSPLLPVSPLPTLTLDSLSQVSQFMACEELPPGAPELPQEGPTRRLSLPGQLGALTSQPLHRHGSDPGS

[3] = CYP2D6 inhibited; 100/(100-MP); over the course of multiple doses
[4] = in vivo; cited from earlier work
[5] = molecular target: CYP2D6 (Homo sapiens, UniProt P10635); details: in vivo; cited from earlier work
CYP2D6, sequence (P10635 whole entry): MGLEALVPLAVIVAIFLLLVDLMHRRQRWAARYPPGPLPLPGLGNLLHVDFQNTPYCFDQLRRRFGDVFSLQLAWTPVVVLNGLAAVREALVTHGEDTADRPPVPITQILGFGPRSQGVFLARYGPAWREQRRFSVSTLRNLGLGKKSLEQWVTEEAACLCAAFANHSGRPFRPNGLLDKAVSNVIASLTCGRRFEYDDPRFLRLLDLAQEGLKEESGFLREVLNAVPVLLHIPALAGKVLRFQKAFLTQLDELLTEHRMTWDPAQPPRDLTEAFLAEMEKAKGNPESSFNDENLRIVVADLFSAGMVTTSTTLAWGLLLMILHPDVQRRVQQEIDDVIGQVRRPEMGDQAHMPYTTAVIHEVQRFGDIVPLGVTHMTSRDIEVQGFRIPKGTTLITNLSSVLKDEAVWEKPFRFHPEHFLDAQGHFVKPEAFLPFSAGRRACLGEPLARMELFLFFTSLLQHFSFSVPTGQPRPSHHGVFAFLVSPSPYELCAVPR

[6] = test system: QTc interval; details: positive control; cited from earlier work
[7] = value inserted in K1 equation; read-out: Cmax of the drug at a test dose; cited from earlier work
[8] = value inserted in K1 equation as (100-97)/100; cited from earlier work
[9] = molecular target: IKs (Homo sapiens, UniProt P51787); details: cited from earlier work

SMILES: CCCCc1oc2ccccc2c1C(=O)c1cc(I)c(OCCN(CC)CC)c(I)c1 [Amiodarone]
block of L-type Ca2+ currents [1]: blocks L-type Ca^2+ currents

SMILES: COc1ccccc1OCC(O)CN1CCN(CC(=O)Nc2c(C)cccc2C)CC1 (centres unmarked) [Ranolazine]
block of IKr [2]: blocks IKr

increase in concentration [3]: ~4 fold
SMILES: Cc1cccc(C)c1OCC(C)N (centres unmarked) [mexiletine]
F (bioavailability) [4]: 95% | cleared by CYP2D6 [5]: 75%

SMILES: COc1c(N2C[C@@H]3CCCN[C@@H]3C2)c(F)cc2c(=O)c(C(=O)O)cn(C3CC3)c12 [moxifloxacin]
QT prolongation added to the QTc interval [6]: 7-10 milliseconds

SMILES: CC(C)(C)c1ccc(C(O)CCCN2CCC(C(O)(c3ccccc3)c3ccccc3)CC2)cc1 (centres unmarked) [terfenadine]
Cmax [7]: 3.18 nM | Protein binding of the drug [8]: 97%

SMILES: Nc1nc(N)c2nc(-c3ccccc3)c(N)nc2n1 [triamterene]
block of IKs [9]: significant block | block of IKr [2]: significant block

SMILES: CC1Cc2ccccc2N1NC(=O)c1ccc(Cl)c(S(N)(=O)=O)c1 (centres unmarked) [Indapamide]
block of IKs [9]: inhibit IKs
